The source of these data is patent publication US20250115578A1, “AROMATIC FUSED RING NAV1.8 INHIBITOR, AND USE THEREOF” (CHENGDU KANGHONG PHARMACEUTICAL CO., LTD., priority 2022, published 2025).

The inhibition is the drop in the measured response relative to a control, in per cent. One may read the kinetic solubility as solubility judged after dilution from a stock solution rather than from solid. One may read the IC50 as the midpoint of a concentration-inhibition curve.

≈ marks a conversion by molar mass, not a printed value.

For one series, the target named is hNav1.8 (Homo sapiens (Human), UniProt Q9Y5Y9). Kind of series: Manual patch clamp, Method 1 (CHO cell line stably expressing hNav1.8). Conditions: for inhibition at 0.01 µM: 10 nM; for inhibition at 0.01 µM / inhibition at 0.1 µM: Method 1, CHO-hNav1.8, read-out: Inhibition rate of hNav1.8; for inhibition at 0.1 µM: 100 nM; for IC50: Method 1, CHO-hNav1.8, manual patch clamp, resting state, read-out: IC50 inhibitory activity against hNav1.8. It counts as cell-based. The text has this:
The patch clamp technique is known as the “gold standard” for studying ion channels, and it uses glass microelectrodes to seal the cell membrane to measure the currents of various membrane channel. […] Patch clamp technology can evaluate the inhibition strength of different compounds on different states of Navs by measuring the changes of membrane channel currents after different compounds bind to different states of Navs.
The representative compounds of the present invention used stable CHO or HEK293 cell lines transfected with specific ion channels to measure the effect of the compounds on Nav1.8 currents by manual patch clamp test, to evaluate their inhibition strength.
The assay protocol of manual patch clamp is as follows:
CHO cell lines with stable expression of hNav1.8 were cultured in F12 medium containing 10% fetal bovine serum at a constant temperature of 37° C., and the carbon dioxide concentration was maintained at 5%. The old culture medium was removed and washed once with PBS, then 1 mL 0.25%-Trypsin-EDTA solution was added and incubated at 37° C. for 1 min. When the cells were detached from the bottom of the dish, 5 mL of the complete medium preheated at 37° C. was added, and the aggregated cells were separated by gently blowing with a straw. The cell suspension was transferred into a sterile centrifuge tube and centrifuged at 1000 rpm for 5 min to collect cells. The cells were then inoculated into a cell culture dish with a diameter of 6 cm (2.5×10^5 cells/petri dish, 5 mL medium) for expansion or maintenance.
In order to maintain the electrophysiological activity of the cells, the cell density must be less than 80%.
The cells were separated with 0.25%-Trypsin-EDTA before the assay, and 5×10^3 cells were seeded on a cover slip and cultured in a 24-well plate (final volume: 500 μL) for 18 h. Then the assay was conducted.
The compounds prepared in the examples of the present invention were dissolved in dimethyl sulfoxide (DMSO) and prepared into DMSO stock solution with a concentration of 10 mM for assay. And it was diluted to various concentrations with extracellular solution (140 mM NaCl, 3.5 mM KCl, 1 mM MgCl2, 2 mM CaCl2), 10 mM Glucose, 10 mM HEPES, 1.25 mM NaH2PO4, pH=7.4 regulated by NaOH), and the final concentration of DMSO in each compound sample was 0.10% or less.
A capillary glass pipette (BF150-86-10, Sutter Instruments) was pulled into a recording electrode with a micropipette puller (P97, Sutter Instruments). The micromanipulator (MP285, Sutter Instruments) was manipulated under an inverted microscope (IX71, Olympus) to make the recording electrode contact the cell and negative pressure suction was applied to achieve a GQ seal. Then, rapid capacitance compensation was performed, and negative pressure was continued, cell membrane was broken by suction, and whole cell recording mode was formed. Then the slow capacitance was compensated and the membrane capacitance and series resistance were recorded without leakage compensation. When the whole cell recording current was stabilized, dosing was initiated, and the next concentration was detected after acting 5 minutes of each drug concentration. Multiple cells were independently repeated during the recording period. All electrophysiological assays were performed at room temperature. Specifically, 6 concentrations (measuring IC50) or 2 concentrations (preliminary screening) were set for each compound, and the percentage of inhibition of sodium channels was determined by calculating the relative percentage of peak current generated before and after each concentration compound treated cells, and the IC50 value or percentage of inhibition at a specific concentration was calculated using IGOR pro software.
(In general: Patch clamp records ionic current or voltage across a cell membrane.)

The nature of series [1]: Stability assay for human liver microsomes in vitro. The format is in vitro ADME. Conditions: 1 μM compound, 0.5 mg/mL liver microsomes, read-out: Human liver microsome stability T1/2. The procedure: • Human liver microsomes, purchased from Corning or Xenotech, stored in a −80° C. refrigerator. • Nicotinamide adenine dinucleotide phosphate (NADPH), Chem-impex international, 00616 • Control compounds: testosterone, diclofenac, propafenone
• Water bath (HH-60, Guohua, Changzhou, China) • Pipette workstation (PP-550DS, Apricot, Covina, USA) • Centrifuge (5810R, Eppendorf, Hamburg, Germany) • Mass Spectrometer (Sciex API 4000, Singapore) • High Performance Liquid Chromatography (LC 20-AD, Shimadzu, Kyoto, Japan) • Sampler (ADDA, Apricot Designs, California, USA)
• Stock solution: 10 mM in DMSO • Working solution concentration preparation: 10 mM stock solution was diluted to 100 μM with 100% acetonitrile (organic phase content: 99% ACN, 1% DMSO)
Two 96-well incubation plates were named T60 incubation plate and NCF60 incubation plate.
445 μL microsomal working solution (liver microsomal protein concentration: 0.56 mg/mL) was added to the T60 and NCF60 incubation plates respectively, then the incubation plates above were placed in a water bath at 37° C. for pre-incubation approximately 10 minutes.
After the pre-incubation finished, 5 μL of the test compound working solution was added to the T60 and NCF60 incubation plates respectively, and mixed well. 50 μL potassium phosphate buffer was added to each well on the NCF60 incubation plate to start the reaction. 180 μL termination solution (acetonitrile solution containing 200 ng/mL tolbutamide and 200 ng/mL labetalol) and 6 uL working solution of NADPH regeneration system were added to the TO termination plate, and 54 μL samples were removed from the T60 incubation plate to the TO termination plate (TO sample generated). The reaction was initiated by adding 44 μL of NADPH regenerating system working solution per well on the T60 incubation plate. Only 54 μL microsomal working solution, 6 uL NADPH regeneration system working solution, and 180 μL termination solution were added to the Blank plate. Therefore, in the samples of the test or control compounds, the final reaction concentration of the compounds, testosterone, diclofenac and propafenone was 1 μM, the concentration of the liver microsomes was 0.5 mg/mL, and the final concentration of DMSO and acetonitrile in the reaction system was 0.01% (v/v) and 0.99% (v/v), respectively.
After incubation for an appropriate time (e.g. 5, 10, 20, 30, and 60 minutes), 180 μL of termination solution (acetonitrile solution containing 200 ng/mL tolbutamide and 200 ng/mL labetalol) was added to the sample hole of each termination plate, respectively. After that, 60 μL sample was removed from the T60 incubation plate to terminate the reaction.
All sample plates were shaken evenly and centrifuged at 3220×g for 20 min. Then 80 μL supernatant was taken from each well and diluted to 240 μL pure water for LC-MS/MS analysis.
All samples were injected for analysis.
On the technique in general: Liver microsomes are vesicles of endoplasmic reticulum, rich in cytochrome P450 enzymes.

The nature of series [2]: Assay of kinetic solubility. Conditions: aqueous buffer, kinetic from dmso stock, pH 3.5 phosphate buffer, 25° C. The format is physicochemical. The procedure:
The stock solutions of the test compound and the standard progesterone were prepared in DMSO at the concentration of 10 mM.
30 μL of stock solutions at 10 mM of the test compounds and standard substance were placed in order into their proper 96-well plate. 970 μL phosphate buffer at the specified pH was added to the proper vial of the sample plate. The assay was performed in duplicate. A stirring stick was added to each vial and the teflon/silicone plug was capped. The sample tray was then placed in the Eppendorf Thermomixer Comfort and shaken at 1100 RPM at 25° C. for 2 hours. After 2 hours, plugs were removed, a big magnet was used to remove the stirring sticks, and samples were transferred from the sample plate to the filter plate. Vacuum pump was used to create negative pressure and filtered the samples. Transferred 5 μL of the filtrate to the new sample plate, then added 5 μL DMSO and 490 μL water/acetonitrile (V/V=1/1) to dilute the solvent. The dilution factor may be adjusted according to the solubility values of the substances to be tested or the strength of its LC-MS signal response.
From the 10 mM DMSO stock solution, 15 μL of that was transferred into the empty plate and 485 μL DMSO was added to prepare a 300 μM standard solution. From the 300 μM standard solution plate, 5 μL of that was transferred to another empty plate and 5 μL phosphate buffer at specified pH and 490 μL water/acetonitrile (V/V=1/1) dilution solvent were added to the standard solution to get a final concentration of 3 μM. The concentration of the standard solution may be adjusted according to the strength of its LC-MS signal response.
The sample plate was placed into the sample tray of the automatic sampler and the samples were evaluated by LC-MS/MS analysis.
All calculations were carried out by Microsoft Excel.
The sample filtrate was analyzed and quantified against a standard of known concentrations using LC-MS spectral peaks to identify and quantify. The solubility values of the control drug and the compounds to be tested were calculated as the following formula: • [Sample]: concentration of the sample • AREASample: peak area of the sample • INJ VOLStd: standard sample injection volume • DFSample: sample dilution factor • [STD]: standard substance concentration • AREAStd: peak area of standard substance • INJ VOLSample: sample injection volume

hNav1.8, sequence (Q9Y5Y9 whole entry): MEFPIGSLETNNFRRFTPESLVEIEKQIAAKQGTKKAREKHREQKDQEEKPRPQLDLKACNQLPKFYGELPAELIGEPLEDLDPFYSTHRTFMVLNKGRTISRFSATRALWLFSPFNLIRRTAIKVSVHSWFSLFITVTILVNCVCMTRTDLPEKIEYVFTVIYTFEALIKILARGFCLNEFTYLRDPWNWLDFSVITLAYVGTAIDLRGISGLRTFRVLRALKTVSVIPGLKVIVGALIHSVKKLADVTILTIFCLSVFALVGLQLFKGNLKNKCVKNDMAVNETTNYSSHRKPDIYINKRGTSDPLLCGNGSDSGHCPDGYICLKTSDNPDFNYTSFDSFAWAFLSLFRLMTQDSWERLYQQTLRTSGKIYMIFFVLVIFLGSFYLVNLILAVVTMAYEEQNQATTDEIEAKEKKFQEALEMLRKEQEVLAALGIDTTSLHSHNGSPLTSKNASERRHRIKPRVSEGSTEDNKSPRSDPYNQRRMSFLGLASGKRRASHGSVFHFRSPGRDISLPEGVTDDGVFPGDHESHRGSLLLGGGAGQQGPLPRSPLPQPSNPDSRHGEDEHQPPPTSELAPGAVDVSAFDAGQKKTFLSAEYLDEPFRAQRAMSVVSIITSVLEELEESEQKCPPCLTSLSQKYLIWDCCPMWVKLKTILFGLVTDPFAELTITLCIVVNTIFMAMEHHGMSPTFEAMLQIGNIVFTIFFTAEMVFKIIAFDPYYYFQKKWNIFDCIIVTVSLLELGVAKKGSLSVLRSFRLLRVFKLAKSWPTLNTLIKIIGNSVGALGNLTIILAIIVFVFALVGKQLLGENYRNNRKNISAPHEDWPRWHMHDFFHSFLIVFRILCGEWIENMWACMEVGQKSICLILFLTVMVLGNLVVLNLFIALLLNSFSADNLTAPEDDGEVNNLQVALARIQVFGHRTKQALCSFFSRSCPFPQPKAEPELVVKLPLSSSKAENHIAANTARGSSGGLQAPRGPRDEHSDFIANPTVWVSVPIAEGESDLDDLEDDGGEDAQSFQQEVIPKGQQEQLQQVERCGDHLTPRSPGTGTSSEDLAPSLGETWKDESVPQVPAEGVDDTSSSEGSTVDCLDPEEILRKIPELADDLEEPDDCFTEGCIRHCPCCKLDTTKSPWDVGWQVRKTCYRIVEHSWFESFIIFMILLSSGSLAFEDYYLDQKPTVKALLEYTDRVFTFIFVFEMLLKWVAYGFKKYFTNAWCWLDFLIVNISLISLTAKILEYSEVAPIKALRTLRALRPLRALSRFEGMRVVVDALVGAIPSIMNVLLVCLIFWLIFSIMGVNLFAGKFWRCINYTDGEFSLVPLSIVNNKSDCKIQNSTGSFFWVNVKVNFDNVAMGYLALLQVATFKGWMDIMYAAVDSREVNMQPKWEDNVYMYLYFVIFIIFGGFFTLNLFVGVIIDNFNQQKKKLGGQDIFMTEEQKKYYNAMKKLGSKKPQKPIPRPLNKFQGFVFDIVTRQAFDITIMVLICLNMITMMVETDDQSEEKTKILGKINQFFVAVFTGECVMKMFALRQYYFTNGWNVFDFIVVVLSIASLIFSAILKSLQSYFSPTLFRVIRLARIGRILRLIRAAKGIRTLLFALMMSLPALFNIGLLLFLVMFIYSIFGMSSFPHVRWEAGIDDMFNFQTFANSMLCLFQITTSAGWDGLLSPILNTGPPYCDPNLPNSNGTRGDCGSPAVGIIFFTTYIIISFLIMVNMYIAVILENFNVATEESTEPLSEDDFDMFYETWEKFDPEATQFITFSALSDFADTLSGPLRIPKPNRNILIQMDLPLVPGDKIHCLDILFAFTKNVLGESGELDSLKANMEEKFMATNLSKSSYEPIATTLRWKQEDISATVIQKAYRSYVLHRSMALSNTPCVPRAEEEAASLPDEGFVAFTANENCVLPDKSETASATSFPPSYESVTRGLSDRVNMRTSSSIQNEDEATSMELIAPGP

For the compound `O=C(Nc1ccc[n+]([O-])c1)c1nc2ccccc2nc1N1CCCC(F)(F)CC1` [Example 01], on hNav1.8, the inhibition at 0.01 µM was 0.36% and the inhibition at 0.1 µM was 41.8%. The half-life at 1 µM in series [1] was greater than 145 min.

Turning to `O=C(Nc1cc[nH]c(=O)c1)c1nc2ccccc2nc1N1CCCC(F)(F)CC1` [Example 03, 3-(4,4-difluoroazepan-1-yl)-N-(2-carbonyl-1,2-dihydropyridin-4-yl)quinoxaline-2-carboxamide], at hNav1.8, the inhibition at 0.01 µM is 19.7% and the inhibition at 0.1 µM is 70%. Also, the half-life at 1 µM in series [1] was 79.3 min.

Consider `O=C(Nc1cn[nH]c(=O)c1)c1nc2ccccc2nc1N1CCCC(F)(F)CC1` [Example 04, 3-(4,4-difluoroazepan-1-yl)-N-(6-carbonyl-1,6-dihydropyridazin-4-yl)quinoxaline-2-carboxamide], for which, on hNav1.8, the inhibition at 0.01 µM came out at 3.33% and the inhibition at 0.1 µM was 46%. Besides, in series [1], the half-life at 1 µM came out at 79.9 min.

Turning to `NC(=O)c1cc(NC(=O)c2nc3ccccc3cc2N2CCCC(F)(F)CC2)ccc1F` [Example 11, N-(3-carbamoyl-4-fluorophenyl)-3-(4,4-difluoroazepan-1-yl) quinoline-2-carboxamide], at hNav1.8, the inhibition at 0.01 µM came out at 15.3% and the inhibition at 0.1 µM was determined as 72.8%.

For `NC(=O)c1cccc(NC(=O)c2cc3cc(F)c(F)cc3nc2N2CCCC(F)(F)CC2)c1` [Example 12, N-(3-carbamoylphenyl)-2-(4,4-difluoroazepan-1-yl)-6,7-difluoroquinoline-3-carboxamide], on hNav1.8, the inhibition at 0.01 µM came out at 95.8% and the inhibition at 0.1 µM stood at 100%.

On to `NS(=O)(=O)c1cccc(NC(=O)c2cc3ccccc3nc2N2CCCC(F)(F)CC2)c1` [Example 13, 2-(4,4-difluoroazepan-1-yl)-N-(3-sulfamoylphenyl)quinoline-3-carboxamide], for which the kinetic solubility at 2 h in series [2] was determined as 3.38 µM (≈ 1.56 µg/mL). Further, at hNav1.8, the inhibition at 0.01 µM is 95.6% and the inhibition at 0.1 µM was 99.7%.

In the case of `NC(=O)c1cc(NC(=O)c2nc3ccccc3cc2N2CCCC(F)(F)CC2)ccn1` [Example 15, N-(2-carbamoylpyridin-4-yl)-3-(4,4-difluoroazepan-1-yl) quinoline-2-carboxamide], on hNav1.8, the inhibition at 0.01 µM turned out to be 15.4% and the inhibition at 0.1 µM was 49.9%.

Consider `NS(=O)(=O)c1cc(NC(=O)c2cc3cc(F)c(F)cc3nc2N2CCCC(F)(F)CC2)ccn1` [Example 17, 2-(4,4-difluoroazepan-1-yl)-6,7-difluoro-N-(2-sulfamoylpyridine-4-yl)quinoline-3-carboxamide], for which, at hNav1.8, the inhibition at 0.01 µM was found to be 98.3%, the inhibition at 0.1 µM is 100% and the IC50 came to 0.095 nM. Also, in series [1], the half-life at 1 µM is greater than 145 min.

In the case of `NC(=O)c1cc(NC(=O)c2cc3cccnc3cc2N2CCCC(F)(F)CC2)ccn1` [Example 18, N-(2-carbamoylpyridin-4-yl)-7-(4,4-difluoroazepan-1-yl)quinoline-6-carboxamide], at hNav1.8, the inhibition at 0.01 µM was -3.14% and the inhibition at 0.1 µM came to 21.5%.

With `NC(=O)c1cc(NC(=O)c2cc3cccnc3cc2N2CCCC(F)(F)CC2)ccc1F` [Example 19, N-(3-carbamoyl-4-fluorophenyl)-7-(4,4-difluoroazepan-1-yl)quinoline-6-carboxamide], on hNav1.8, the inhibition at 0.01 µM worked out at 0.44% and the inhibition at 0.1 µM turned out to be 16.6%.

Consider `NC(=O)c1cc(NC(=O)c2nc3ccc(Cl)cc3cc2N2CCCC(F)(F)CC2)ccn1` [Example 20, N-(2-carbamoylpyridin-4-yl)-6-chloro-3-(4,4-difluoroazepan-1-yl)quinoline-2-carboxamide], for which, at hNav1.8, the inhibition at 0.01 µM is 19.5% and the inhibition at 0.1 µM was 81.1%.

With `NC(=O)c1cc(NC(=O)c2cc3cc(F)c(F)cc3nc2N2CCCC(F)(F)CC2)ccc1F` [Example 21, N-(3-carbamoyl-4-fluorophenyl)-2-(4,4-difluoroazepan-1-yl)-6,7-difluoroquinoline-3-carboxamide], on hNav1.8, the IC50 is 0.36 nM. In series [1], the half-life at 1 µM worked out at 56.6 min.

Regarding `COc1ccc2cc(C(=O)Nc3ccnc(C(N)=O)c3)c(N3CCCC(F)(F)CC3)nc2c1` [Example 22, N-(2-carbamoylpyridin-4-yl)-2-(4,4-difluoroazepan-1-yl)-7-methoxyquinoline-3-carboxamide], on hNav1.8, the inhibition at 0.1 µM was 90.7%.
